Experimental data published in EPA's ToxRefDB 2.

Legend:
mouse [1] = conditions: Carcinogenicity; cd1; Oral; Feed; dose end: 18 month; group: systemic; systemic / in life observation / body weight / body weight + systemic / in life observation / body weight / body weight gain + systemic / in…
dog [2] = conditions: Chronic toxicity; beagle; Oral; Feed; dose end: 52 week; group: systemic; systemic / in life observation / body weight / body weight gain
dog [3] = conditions: Subchronic oral toxicity in nonrodent, beagle, Feed, dose end: 6 month, group: systemic
rat [4] = conditions: Prenatal developmental toxicity study, sprague dawley, Oral, Gavage/Intubation, dose end: 15 GD
dog [5] = conditions: Subchronic oral toxicity in nonrodent, beagle, Feed, dose end: 6 month, group: systemic; remark: listed apart in the source
rat [6] = conditions: Sub-acute repeat dose toxicity; Oral; Gavage/Intubation; dose end: 7 day; group: systemic; systemic / hematology / erythrocyte (rbc) count differential / erythrocyte (rbc) + systemic / hematology / hematocrit (hct) / hematocrit (…
rat [7] = conditions: Sub-acute repeat dose toxicity, sprague dawley, Oral, Gavage/Intubation, dose end: 10 day, group: systemic
dog [8] = conditions: Subchronic oral toxicity in nonrodent, beagle, Gavage/Intubation, dose end: 91 day, group: systemic
rat [9] = conditions: Subchronic oral toxicity in rodents, sprague dawley, Gavage/Intubation, dose end: 93 day, group: systemic
rat [10] = conditions: Sub-acute repeat dose toxicity, sprague dawley, Oral, Gavage/Intubation, dose end: 14 day, group: systemic
dog [11] = conditions: Sub-acute repeat dose toxicity; beagle; Oral; Gavage/Intubation; dose end: 14 day; group: systemic; systemic / clinical chemistry / [other] / [other]
mouse [12] = conditions: Prenatal developmental toxicity study, other, Injection, Intraperitoneal, dose end: 15 GD
rat [13] = conditions: Fertility (Segment I); wistar; Injection; Subcutaneous; group: parental; systemic / organ weight / prostate / nos
rabbit [14] = conditions: Prenatal developmental toxicity study; new zealand white; Oral; Gavage/Intubation; dose end: 19 GD; group: maternal; systemic / in life observation / body weight / body weight + systemic / in life observation / body weight / body weight gain + systemic / in…
rat [15] = conditions: Prenatal developmental toxicity study, other, Oral, Gavage/Intubation, dose end: 17 GD
rat [16] = conditions: Prenatal developmental toxicity study, sprague dawley, Oral, Gavage/Intubation, dose end: 17 GD
rabbit [17] = conditions: Prenatal developmental toxicity study, new zealand white, Oral, Gavage/Intubation, dose end: 19 GD
mouse [18] = conditions: Subchronic oral toxicity in rodents, b6c3f1, Gavage/Intubation, dose end: 13 week, group: systemic
rat [19] = conditions: Combined chronic toxicity/carcinogenicity; fischer; Oral; Gavage/Intubation; dose end: 2 year; group: systemic; systemic / in life observation / mortality / mortality + systemic / pathology microscopic / lung / foreign body + systemic / pathology …
mouse [20] = conditions: Carcinogenicity, b6c3f1, Oral, Gavage/Intubation, dose end: 2 year, group: systemic
rat [21] = conditions: Subchronic oral toxicity in rodents, fischer, Gavage/Intubation, dose end: 13 week, group: systemic
rabbit [22] = conditions: Prenatal developmental toxicity study, new zealand white, Oral, Gavage/Intubation, dose end: 19 GD, group: maternal
rat [23] = conditions: Subchronic oral toxicity in rodents, sprague dawley, Feed, dose end: 3 month, group: systemic, systemic / clinical chemistry / glucose / glucose + systemic / hematology / erythrocyte (rbc) count differential / erythrocyte (rbc) + …
dog [24] = conditions: Subchronic oral toxicity in nonrodent, beagle, Feed, dose end: 15 week, group: systemic, systemic / organ weight / liver / absolute + systemic / organ weight / liver / relative to body weight + systemic / pathology microscopic / …
rat [25] = conditions: Prenatal developmental toxicity study, other, Oral, Gavage/Intubation, dose end: 15 GD
rat [26] = conditions: Subchronic oral toxicity in rodents, fischer, Feed, dose end: 13 week, group: systemic
dog [27] = conditions: Chronic toxicity; beagle; Oral; Feed; dose end: 52 week; group: systemic; systemic / organ weight / thyroid gland / absolute + systemic / organ weight / thyroid gland / relative to body weight + systemic / …
rat [28] = conditions: Multigenerational reproductive toxicity study, sprague dawley, Oral, Feed, dose end: 2 generation, group: parental
[29] = systemic / in life observation / body weight / body weight gain
[30] = systemic / in life observation / body weight / body weight gain + systemic / in life observation / food consumption / food consumption
[31] = group: developmental, systemic / in life observation / body weight / fetal weight
[32] = group: maternal, reproductive / reproductive performance / implantations / implantations + systemic / in life observation / body weight / body weight gain + …
[33] = systemic / in life observation / food consumption / food consumption
[34] = systemic / in life observation / clinical signs / abnormal feces + systemic / in life observation / clinical signs / emesis
[35] = systemic / in life observation / clinical signs / abnormal feces + systemic / in life observation / clinical signs / emesis + systemic / …
[36] = systemic / in life observation / clinical signs / [other]
[37] = systemic / in life observation / clinical signs / [other] + systemic / in life observation / clinical signs / salivation
[38] = systemic / clinical chemistry / [other] / [other] + systemic / in life observation / clinical signs / [other] + systemic / in life …
[39] = group: developmental, developmental / developmental malformation / bone / misshapen + developmental / developmental malformation / bone / short + developmental / …
[40] = group: maternal, reproductive / reproductive performance / resorptions / resorptions
[41] = group: maternal, systemic / in life observation / body weight / body weight + systemic / in life observation / food consumption / food consumption
[42] = group: maternal, systemic / in life observation / body weight / body weight + systemic / in life observation / food consumption / food consumption + …
[43] = group: maternal, systemic / in life observation / food consumption / food consumption
[44] = group: maternal, systemic / in life observation / food consumption / food consumption + reproductive / reproductive performance / postimplantation loss / …
[45] = group: maternal, systemic / in life observation / body weight / body weight + systemic / in life observation / food consumption / food consumption + systemic…
[46] = systemic / in life observation / body weight / body weight
[47] = systemic / in life observation / body weight / body weight + systemic / in life observation / clinical signs / unsteady gait
[48] = systemic / pathology microscopic / brain / corpora amylacea + systemic / pathology microscopic / adrenal gland / adenoma + systemic / …
[49] = systemic / in life observation / body weight / body weight + systemic / in life observation / clinical signs / labored respiration + …
[50] = systemic / in life observation / clinical signs / tremors
[51] = systemic / in life observation / clinical signs / tremors + reproductive / reproductive performance / aborted / aborted + systemic / …
[52] = group: developmental, developmental / developmental malformation / bone / incomplete ossification + systemic / in life observation / body weight / fetal weight
[53] = group: maternal, systemic / hematology / hematocrit (hct) / hematocrit (hct) + systemic / hematology / hemoglobin (hgb) / hemoglobin (hgb) + systemic / …
[54] = systemic / in life observation / body weight / body weight + systemic / in life observation / food consumption / food consumption + systemic…
[55] = systemic / in life observation / body weight / body weight + systemic / pathology microscopic / thyroid gland / hyperplasia
[56] = systemic / pathology microscopic / thyroid gland / hyperplasia + systemic / pathology microscopic / thyroid gland / hypertrophy + systemic…

## CCc1cccc(C)c1N(C(=O)CCl)C(C)COC (stereo unspecified) [Metolachlor]
Mouse [1]
  LEL: 450 mg/kg/day
  LOAEL: 450 mg/kg/day
  NEL: 150 mg/kg/day
  NOAEL: 150 mg/kg/day
Dog [2]
  LEL: 33 mg/kg/day
  LOAEL: 33 mg/kg/day
  NEL: 9.7 mg/kg/day
  NOAEL: 9.7 mg/kg/day
Dog [3]; [29]
  LOAEL: 29.4 mg/kg/day
Dog [3]; [30]
  LEL: 29.4 mg/kg/day
  NEL: 8.77 mg/kg/day
  NOAEL: 8.77 mg/kg/day
Rat [4]; [31]
  LEL: 1000 mg/kg/day
  LOAEL: 1000 mg/kg/day
  NEL: 300 mg/kg/day
  NOAEL: 300 mg/kg/day
Rat [4]; [32]
  LOAEL: 1000 mg/kg/day
  NEL: 100 mg/kg/day
  NOAEL: 300 mg/kg/day
Rat [4]; group: maternal, systemic / in life observation / clinical signs / salivation
  LEL: 300 mg/kg/day
Dog [5]; [29]
  LOAEL: 29.4 mg/kg/day
Dog [5]; [30]
  LEL: 29.4 mg/kg/day
  NEL: 8.77 mg/kg/day
  NOAEL: 8.77 mg/kg/day

## CCOc1ccc2[nH]cc(C(=O)NCc3ccccc3)c(=O)c2n1
Rat [6]
  LEL: 240 mg/kg/day
  LOAEL: > 240 mg/kg/day
  NEL: < 240 mg/kg/day
  NOAEL: ≥ 240 mg/kg/day
Rat [7]; [30]
  LOAEL: > 160 mg/kg/day
  NOAEL: ≥ 160 mg/kg/day
Rat [7]; [33]
  LEL: 5 mg/kg/day
  NEL: < 5 mg/kg/day
Dog [8]; [34]
  LEL: 1 mg/kg/day
  NEL: < 1 mg/kg/day
Dog [8]; [35]
  LOAEL: > 80 mg/kg/day
  NOAEL: ≥ 80 mg/kg/day
Rat [9]; [36]
  LEL: 10 mg/kg/day
  NEL: < 10 mg/kg/day
Rat [9]; [37]
  LOAEL: > 240 mg/kg/day
  NOAEL: ≥ 240 mg/kg/day
Rat [10]; [38]
  LOAEL: > 198 mg/kg/day
  NOAEL: ≥ 198 mg/kg/day
Rat [10]; [36]
  LEL: 10 mg/kg/day
  NEL: < 10 mg/kg/day
Dog [11]
  LEL: 26 mg/kg/day
  LOAEL: > 26 mg/kg/day
  NEL: 6 mg/kg/day
  NOAEL: ≥ 26 mg/kg/day

## NC(=O)N1c2ccccc2C=Cc2ccccc21 [Carbamazepine]
Mouse [12]; [39]
  LEL: 15 mg/kg/day
  LOAEL: > 30 mg/kg/day
  NEL: < 15 mg/kg/day
  NOAEL: ≥ 30 mg/kg/day
Mouse [12]; [40]
  LEL: 15 mg/kg/day
  LOAEL: > 30 mg/kg/day
  NEL: < 15 mg/kg/day
  NOAEL: ≥ 30 mg/kg/day
Rat [13]
  LEL: 20 mg/kg/day
  LOAEL: > 20 mg/kg/day
  NEL: < 20 mg/kg/day
  NOAEL: ≥ 20 mg/kg/day

## CCCOc1sc(C(=O)N2CCC(c3cc(CN)ccc3F)CC2)c(C)c1Br.Cl [AVE8923]
Rabbit [14]
  LEL: 50 mg/kg/day
  LOAEL: > 300 mg/kg/day
  NEL: < 50 mg/kg/day
  NOAEL: ≥ 300 mg/kg/day
Rat [15]; [31]
  LEL: 100 mg/kg/day
  LOAEL: 100 mg/kg/day
  NEL: 25 mg/kg/day
  NOAEL: 25 mg/kg/day
Rat [15]; [41]
  NEL: 25 mg/kg/day
  NOAEL: 25 mg/kg/day
Rat [15]; [42]
  LEL: 100 mg/kg/day
  LOAEL: 100 mg/kg/day
Rat [16]; [31]
  LEL: 75 mg/kg/day
  LOAEL: 75 mg/kg/day
  NEL: 25 mg/kg/day
  NOAEL: 25 mg/kg/day
Rat [16]; [43]
  LEL: 75 mg/kg/day
  LOAEL: 75 mg/kg/day
Rat [16]; [44]
  NEL: 25 mg/kg/day
  NOAEL: 25 mg/kg/day
Rabbit [17]; [31]
  LEL: 200 mg/kg/day
  LOAEL: > 200 mg/kg/day
  NEL: 100 mg/kg/day
  NOAEL: ≥ 200 mg/kg/day
Rabbit [17]; [45]
  LEL: 200 mg/kg/day
  LOAEL: > 200 mg/kg/day
  NEL: 100 mg/kg/day
  NOAEL: ≥ 200 mg/kg/day

## OCc1ccccc1 [Benzyl alcohol]
Mouse [18]; [46]
  LEL: 400 mg/kg/day
Mouse [18]; [47]
  LOAEL: 800 mg/kg/day
  NEL: 200 mg/kg/day
  NOAEL: 400 mg/kg/day
Rat [19]
  LEL: 200 mg/kg/day
  LOAEL: > 400 mg/kg/day
  NEL: < 200 mg/kg/day
  NOAEL: ≥ 400 mg/kg/day
Mouse [20]; systemic / pathology microscopic / brain / corpora amylacea
  NEL: 100 mg/kg/day
Mouse [20]; [48]
  LEL: 200 mg/kg/day
  LOAEL: > 200 mg/kg/day
  NOAEL: ≥ 200 mg/kg/day
Rat [21]; [46]
  LEL: 200 mg/kg/day
  LOAEL: 400 mg/kg/day
Rat [21]; [49]
  NEL: 100 mg/kg/day
  NOAEL: 200 mg/kg/day

## CC(C)(C)N(NC(=O)c1ccc(Cl)cc1)C(=O)c1ccccc1 [Halofenozide]
Rabbit [22]; [50]
  LEL: 20 mg/kg/day
  LOAEL: 20 mg/kg/day
Rabbit [22]; [51]
  NEL: 10 mg/kg/day
  NOAEL: 10 mg/kg/day
Rat [23]
  LEL: 52.7 mg/kg/day
  LOAEL: 52.7 mg/kg/day
  NEL: 5.53 mg/kg/day
  NOAEL: 5.53 mg/kg/day
Dog [24]
  LEL: 11.5 mg/kg/day
  LOAEL: 11.5 mg/kg/day
  NEL: 4 mg/kg/day
  NOAEL: 4 mg/kg/day
Rat [25]; [52]
  LEL: 180 mg/kg/day
  LOAEL: 180 mg/kg/day
  NEL: 30 mg/kg/day
  NOAEL: 30 mg/kg/day
Rat [25]; [53]
  LEL: 180 mg/kg/day
  LOAEL: 180 mg/kg/day
  NEL: 30 mg/kg/day
  NOAEL: 30 mg/kg/day

## S=C1NCCN1 [Ethylene thiourea]
Rat [26]; [54]
  LOAEL: > 150 mg/kg/day
  NOAEL: ≥ 150 mg/kg/day
Rat [26]; [55]
  LEL: 12 mg/kg/day
  NEL: < 12 mg/kg/day
Dog [27]
  LEL: 1.79 mg/kg/day
  LOAEL: 1.79 mg/kg/day
  NEL: 0.19 mg/kg/day
  NOAEL: 0.19 mg/kg/day
Rat [28]; systemic / pathology microscopic / thyroid gland / hyperplasia + systemic / pathology microscopic / thyroid gland / hypertrophy
  LOAEL: 1.25 mg/kg/day
Rat [28]; [56]
  LEL: 1.25 mg/kg/day
  NEL: 0.125 mg/kg/day
  NOAEL: 0.125 mg/kg/day
